The record followed here is publication PMC6387968, “An in vitro ADME and in vivo Pharmacokinetic Study of Novel TB-Active Decoquinate Derivatives” (Frontiers in Pharmacology, 2019).

Data set [1] is classed as in vitro ADME. To be noted: pH 7.4. The method, then: The permeability of the compounds was assessed via a PAMPA using a 96-well multiscreen filter plate ([…]). The filter plate was coated with 5% hexadecane in hexane and was allowed to dry before starting the assay. Lucifer yellow was added to the apical side of the filter plate in each well containing test compound solutions prepared in DMSO. A solution of each compound was diluted into phosphate buffer at pH 7.4 (final concentration = 1 μg/mL) and was added to the apical portion of the donor plate. The acceptor plate was filled with blank buffer (pH 7.4). The plates were slotted into each other and agitated at 80 rpm for 4 h at 22°C. Samples from donor and theoretical equilibrium wells were matrix-matched with blank phosphate buffer at pH 7.4. Samples were treated with ACN containing IS (carbamazepine, 23.6 ng/mL) and were submitted for LC-MS/MS analysis on an Agilent Rapid Resolution HPLC and AB Sciex 4500 MS. […] [Wohnsland and Faller, 2001]; [Jung et al., 2006]). where, VA is the volume of the acceptor compartment (0.25 cm^3), VD is the volume of the donor compartment (0.15 cm^3), A is the accessible filter area (0.024 cm^2), and t is the incubation time (s). The peak areas of the samples were used to determine the Papp of each compound using Eq. 3. Papp=C × -ln(1-Acceptor […]/Donor […])

Data set [2] in a line: in vitro. Format: in vitro ADME. Conditions: microsomes. The method, then:
RMB041, -043, and -073 ([…]) prepared in DMSO were incubated separately with 530 μL mouse and human microsomes (0.4 mg/mL) at 37°C with the cofactor NADPH (1 mM). Compounds were assessed at 0 and 60 min. The reaction was stopped by the addition of ice-cold ACN containing IS (carbamazepine, 23.6 ng/mL). The samples were analyzed via LC-MS/MS using the instrumentation and conditions described above. The in vitro half-life, intrinsic clearance rate, and hepatic extraction ratio were predicted using results from this assay in the following equations ([Obach, 1999]). Metabolic stability was assessed as the compound’s depletion from a starting concentration of […] over 1 h in mouse and human microsomal fractions. The in vitro half-life can be predicted from this assay. The linear regression from a graph relating natural logarithmic percentage of the compound remaining versus the incubation time was used to calculate the half-life, CLint, and EH.

Data set [3] can be described thus: physchem. Format: physicochemical. Conditions: 22 °C, pH 7.4, aqueous buffer, kinetic from dmso stock. The procedure: Stock solutions of each compound prepared in DMSO (10 mM) were spiked in duplicate into phosphate buffer at pH 7.4 (final concentration = 200 μM). Calibration samples were prepared by spiking individual compounds in DMSO at 11, 100, and 220 μM. These were used to generate a calibration curve to determine compound concentrations in the test samples. The samples were agitated for 2 h using a plate shaker (500 rpm, 22°C). Approximately 150 μL of the resulting supernatant was transferred to a 96-well analysis plate and the calibration and test samples were analyzed via HPLC with a diode array detector (Agilent 1200 Rapid Resolution HPLC, Agilent Technologies, Santa Clara, CA, United States) comprising a reverse-phase Gemini-C18 analytical column (5 μm, 50 mm × 2 mm; Phenomenex, Torrance, CA, United States). Mobile phases comprised 0.1% FA in water (A) and 0.1% FA in ACN (B). The run lasted 3 min and a gradient elution method was used (Table 1).

The conditions of data set [4]: for Autosampler stability (48 h), Low / Stability, murine whole-blood (-80 °C freeze-thaw), Low / Stability, murine whole-blood (ice, 2 h), Low: 10 ng/mL; for Autosampler stability (48 h), High / IV formulation stability, High / Oral formulation stability, High / Stability, murine whole-blood (-80 °C freeze-thaw), High / Stability, murine whole-blood (ice, 2 h), High: 4000 ng/mL; for IV formulation stability, High / Oral formulation stability, High / Stability, murine whole-blood (ice, 2 h), Low / Stability, murine whole-blood (ice, 2 h), High: 2 h; for Stability, murine whole-blood (-80 °C freeze-thaw), Low / Stability, murine whole-blood (-80 °C freeze-thaw), High / Stability, murine whole-blood (ice, 2 h), Low / Stability, murine whole-blood (ice, 2 h), High: mouse. The method, then: The LC-MS/MS method used was partially validated by assessing recovery from mouse whole-blood, bench-top stability (3 h), auto-sampler stability (48 h), formulation stability (oral and IV, 2 h), freeze-thaw stability (3 cycles), and matrix effects (details in Supplementary Material). Partial method validation, comprising several tests to determine whether the compounds were stable in each possible experimental situation involved with sample collection, storage, and processing, was performed. These tests included: (i) compound stability in mouse whole-blood (on ice and at -80°C), (ii) compound stability in the autosampler, (iii) compound stability in oral and intravenous formulations, (iv) matrix effects (ME), and (v) compound recovery. In this study, stability is reported as a percentage, reflecting the stability of the compound in relation to a fresh sample prepared just before analysis.

Usually half-life stands for the time in which the quantity being followed falls by half. By microsomal CLint is commonly meant the rate of metabolic loss divided by the concentration. A higher microsomal CLint goes with faster metabolism. A word on the kinetic solubility: it is solubility judged after dilution from a stock solution rather than from solid. Consider `CCCCCCCCCCOc1cc2c(=O)c(C(=O)NCCOCCO)cn(CC)c2cc1OCC` [RMB041], for which the “PAMPA Log Papp” value in data set [1] is given as -4.8. Moreover, in data set [2], the half-life at 0.1 M is over 2.5 h and the microsomal CLint at 0.1 M was under 20 µL/min/mg. Further, the solubility (kinetic) at 2 h in data set [3] was over 150 µM. For the same compound, in data set [4], the “Autosampler stability (48 h), Low” value is 92.1%; the “Autosampler stability (48 h), High” value was 94.1%; the “IV formulation stability, High” value was 90.3%; the “Oral formulation stability, High” value worked out at 98.0%. Further, in data set [4], the “Stability, murine whole-blood (-80 °C freeze-thaw), Low” value (from here on “Stability … (-80 °C freeze-thaw), Low”) was 99.2%; the “Stability, murine whole-blood (-80 °C freeze-thaw), High” value (from here on “Stability … (-80 °C freeze-thaw), High”) is reported as 98.7%; the “Stability, murine whole-blood (ice, 2 h), Low” value (shortened to “Stability … (ice, 2 h), Low”) came to 89.2%; the “Stability, murine whole-blood (ice, 2 h), High” value (“Stability … (ice, 2 h), High” for short) is given as 91.2%.
Take `CCCCCCCCCCOc1cc2c(=O)c(C(=O)NCCNCCO)cn(CC)c2cc1OCC` [RMB043]: the “PAMPA Log Papp” value in data set [1] was -4.8. In data set [2], this compound had a half-life at 0.1 M of under 1.67 h and a microsomal CLint at 0.1 M of under 110 µL/min/mg. Besides, in data set [3], the solubility (kinetic) at 2 h is over 150 µM. Moreover, in data set [4], the “Autosampler stability (48 h), Low” value was 99.8%; the “Autosampler stability (48 h), High” value came out at 99.1%; the “IV formulation stability, High” value turned out to be 93.1%; the “Oral formulation stability, High” value is 89.0%. In data set [4], the “Stability … (-80 °C freeze-thaw), Low” value is 91.3%; the “Stability … (-80 °C freeze-thaw), High” value amounted to 92.5%; the “Stability … (ice, 2 h), Low” value is given as 102.4%; the “Stability … (ice, 2 h), High” value stood at 109.0%.
In the case of `CCCCCCCCCCOc1cc2c(=O)c(C(=O)NCCOCCO)cn(CCO)c2cc1OCC` [RMB073], in data set [1], the “PAMPA Log Papp” value is -4.5. Besides, in data set [2], the half-life at 0.1 M is over 2.5 h and the microsomal CLint at 0.1 M was under 20 µL/min/mg. In addition, the kinetic solubility at 2 h in data set [3] was over 150 µM. Moreover, in data set [4], the “Autosampler stability (48 h), Low” value is 105.3%; the “Autosampler stability (48 h), High” value was 102.0%; the “IV formulation stability, High” value stood at 98.8%; the “Oral formulation stability, High” value is 89.3%. Further, in data set [4], the “Stability … (-80 °C freeze-thaw), Low” value came out at 89.5%; the “Stability … (-80 °C freeze-thaw), High” value was determined as 97.3%; the “Stability … (ice, 2 h), Low” value is 87.6%; the “Stability … (ice, 2 h), High” value amounted to 92.3%.
